US6500858B2, “Taxoid anti-tumor agents and pharmaceutical compositions thereof” (The Research Foundation of the state University of New York, priority 1994, dated 2002)
Where “and” joins values, the source holds several entries; their conditions need not be identical. Equal values may be shown once. Read-outs that look alike come from different tables or passages of the source.

Key:
B16 melanoma = assay: intravenous administration to mice bearing B16 melanoma; format: in vivo, B6D2F1 female mice; parameters: key to Responses (activity rating): A = active; HA = highly active
Protocol: (§1) The efficacy of the test compounds on solid tumors in vivo was determined experimentally according to the following general experimental protocol:
(§2) The mice subjected to the experiment were subcutaneously grafted bilaterally with 30 to 60 mg of a tumor fragment on day zero. Mice bearing tumors were mixed before being subjected to the various treatments and controls. In the case of treatment of advanced tumors, tumors were allowed to develop to the desired size, and mice having insufficiently developed tumors were eliminated. The selected mice were distributed at random to undergo the treatments and controls. Mice not bearing tumors may also be subjected to the same treatments as the tumor-bearing mice in order to be able to dissociate the toxic effect from the specific effect on the tumor. Chemotherapy generally began from 3 to 22 days after grafting, depending on the type of tumor, and the mice were observed every day. The different mice groups were weighed 3 or 4 times a week until the maximum weight loss was attained (nadir), and the groups were then weighed at least once a week until the end of the trial.
(§3) The tumors were measured 2 or 3 times a week until the tumor reached approximately 2 grams, or until the animal died, if this occurred before the tumor reached 2 grams. The mice were autopsied when sacrificed.
(§4) The antitumor activity was determined in accordance with different parameters recorded such as dose (mg/kg), mode of administration, time of administration, cytotoxicity, toxicity and log10 cell kill.
SB-T-1213, SB-T-121303, SB-T-121304 and SB-T-1250 were evaluated in B6D2F1 female mice bearing B16 melanoma. The general experimental protocol was as described above. The compounds evaluated were administered intravenously (iv) on an intermittent schedule on days 3, 5, and 7 post tumor implantation. With the exception of SB-T-1250, solutions of the compounds for administration were prepared in 5% ethanol, 5% polysorbate 80, and 90% glucose 5% water.

A2780 = assay: growth inhibition by cell counts, 72 h; format: cell-based, human; conditions: read-out: A2780 IC50
Protocol: (§5) Cells were plated in 6-well flat bottom plates (Falcon, Lincoln Park, N.J.) at a concentration of 10^5 cells ml in complete medium. After 24 h, the medium was replaced with media containing the test substances. Control cells were treated with vehicle alone. Cells were then washed twice and cultures maintained up to 72 h in complete medium (without removing the test substances). At this time point quadruplicate counts of triplicate cultures were performed. To calculate the growth inhibition effect, three independent experiments were performed for each test substance/cell line. The IC50 values were then calculated by fitting the concentration-effect curve data obtained in the three experiments with the sigmoid-Emax model using nonlinear regression, weighted by the reciprocal of the square of the predicted effect according to the method of Motulsky, H. J. and Ransnas, L. A., FASEB J. 1:365-74 (1987).

NCI-H23 = assay: growth inhibition by cell counts, 72 h; format: cell-based, human; conditions: read-out: NCI-H23 IC50
Protocol: as §5

MCF-7 ADRr = assay: growth inhibition by cell counts, 72 h; format: cell-based, human; conditions: read-out: MCF-7 ADRr IC50
Protocol: as §5

MCF-7 wt = assay: growth inhibition by cell counts, 72 h; format: cell-based, human; conditions: read-out: MCF-7 wt IC50
Protocol: as §5

DU-145 = assay: growth inhibition by cell counts, 72 h; format: cell-based, human; conditions: read-out: DU-145 IC50
Protocol: as §5

WiDr = assay: growth inhibition by cell counts, 72 h; format: cell-based, human; conditions: read-out: WiDr IC50
Protocol: as §5

PC-3 = assay: growth inhibition by cell counts, 72 h; format: cell-based, human
Protocol: as §5

[1] = test system: docetaxel-resistant melanoma, B16/TXT; assay: intravenous administration to B16/TXT melanoma-bearing mice; format: in vivo, B6D2F1 female mice; parameters: key to Responses (activity rating): A = active; HA = highly active
Protocol: as §1, §2, §3, §4
SB-T-1213, SB-T-121303, SB-T-121304 and SB-T-1250 were evaluated in B6D2F1 female mice bearing the docetaxel-resistant melanoma, B16/TXT. The general experimental protocol was as described above. The compounds evaluated were administered intravenously on an intermittent schedule on days 3, 5, and 7 post tumor implantation.

[2] = test system: LCC6-WT: human breast carcinoma; assay: cytotoxicity assay of second generation taxoids; format: cell-based; conditions: Homo sapiens, 72 h, read-out: LCC6-WT IC50
Protocol: A cytotoxicity assay of these new second generation taxoids was performed on human breast cancer cell lines, LCC6-WT and LCC-MDR, and selected taxoids were also assayed for their potency against MCF7 and MCF7-R (Skehan, P., et al., J. Nat. Cancer Inst. 1990, 82, 1107-1112).

MCF7 (mammary carcinoma) = assay: tumor cell growth inhibition (SRB, 72 h drug exposure); format: cell-based, human; conditions: Homo sapiens, MCF7, 72 h drug exposure
Protocol: (§6) Lower numbers indicate higher potency. […] The data represent the mean values of at least three separate experiments. Lower numbers indicate greater activity.
(§7) Assessment of cell growth inhibition was determined according to the methods of Skehan et al., J. Nat. Cancer Inst. […] Briefly, cells were plated between 400 and 1200 cells/well in 96 well plates and incubated at 37° C. for 15-18 h prior to drug addition to allow attachment of cells. […] After a 72 h incubation, […] of ice-cold 50% TCA was added to each well and incubated for 1 h at 4° C. Plates were then washed 5 times with tap water to remove TCA, low-molecular-weight metabolites and serum proteins. Sulforhodamine B (SRB) (0.4%, […]) was added to each well. Following a 5 min incubation at room temperature, plates were rinsed 5 times with 0.1% acetic acid and air dried. […] Optical density was measured at 570 nm.

HT-29 (colon carcinoma) = assay: as above; format: cell-based, human; conditions: Homo sapiens, HT-29; 72 h drug exposure
Protocol: as §6, §7

[3] = test system: MCF7-R (mammary carcinoma cells 180-fold resistant to adriamycin); assay: as above; format: cell-based, human; conditions: Homo sapiens, MCF7R; 72 h drug exposure, Table 1
Protocol: as §6, §7

A121 (ovarian carcinoma) = assay: as above; format: cell-based, human; conditions: Homo sapiens, A121; 72 h drug exposure
Protocol: as §6, §7

[4] = test system: LCC6-MDR: MDR1 transduced line; assay: cytotoxicity assay of second generation taxoids; format: cell-based, human; conditions: Homo sapiens, LCC6MDR, 72 h, read-out: LCC6-MDR IC50

3′-dephenyl-3′-(2,2-dimethyl-1-cyclopropyl)-10-acetyldocetaxel [SB-T-1250]
Responses (activity rating) (B16 melanoma; 4.5 mg/kg/adm.): A
T/C (B16 melanoma; 4.5 mg/kg/adm., days 3, 5, 7): 23%
log10 cell kill (B16 melanoma; 4.5 mg/kg/adm., days 3, 5, 7): 1.2
% body weight loss at nadir (B16 melanoma; 4.5 mg/kg/adm., days 3, 5, 7, 4.5 mg/kg): 12.5% and 12.5 (3) %
drug related deaths (DD) (B16 melanoma; 7.3 mg/kg/adm., days 3, 5, 7): ⅕
drug related deaths (DD) (B16 melanoma; 11.8 mg/kg/adm., days 3, 5, 7): ⅗
drug related deaths (DD) (B16 melanoma; 19 mg/kg/adm., days 3, 5, 7): 100%
highest nontoxic dose (B16 melanoma; days 3, 5, 7): 4.5 mg/kg/adm.
IC50 (A2780; 72 h): 3.03 nM
IC50 (NCI-H23; 72 h): 1.6 nM
IC50 (MCF-7 ADRr; 72 h): 48 nM
IC50 (MCF-7 wt; 72 h): 2.3 nM
IC50 (DU-145; 72 h): 0.6 nM
IC50 (WiDr): 0.5 nM
IC50 (PC-3; 72 h): 0.7 nM
T/C ([1]; 2.8 mg/kg/adm., days 3, 5, 7): 152%
T/C ([1]; 4.5 mg/kg/adm., days 3, 5, 7): 108%
Responses (activity rating) ([1]; 7.3 mg/kg/adm.): A
T/C ([1]; 7.3 mg/kg/adm., days 3, 5, 7): 41%
log10 cell kill ([1]; 7.3 mg/kg/adm., days 3, 5, 7): 1.1
% body weight loss at nadir ([1]; 7.3 mg/kg/adm., days 3, 5, 7, 7.3 mg/kg): 16.7% and 16.7 (4) %
highest nontoxic dose ([1]; days 3, 5, 7): 7.3 mg/kg/adm.

CC(=O)O[C@H]1C(=O)[C@@]2(C)[C@H]([C@H](OC(=O)c3ccccc3)[C@]3(O)C[C@H](OC(=O)[C@H](O)[C@@H](NC(=O)c4ccccc4)c4ccccc4)C(C)=C1C3(C)C)[C@]1(OC(C)=O)CO[C@@H]1C[C@@H]2O [Paclitaxel, paclitaxel, reference compound]
IC50 [2]: 3.1 nM
IC50 (A2780; Homo sapiens, A2780, 72 h): 5.4 nM
IC50 (NCI-H23; Homo sapiens, NCI-H23, 72 h): 4.1 nM
IC50 (MCF-7 ADRr; Homo sapiens, MCF7, 72 h): 3300 nM
IC50 (MCF-7 wt; Homo sapiens, MCF7, 72 h): 5.8 nM
IC50 (DU-145; Homo sapiens, DU-145, 72 h): 1.5 nM
IC50 (WiDr; Homo sapiens, WiDr): 3.8 nM
IC50 (PC-3; Homo sapiens, PC-3, 72 h): 3.4 nM
IC50 (MCF7 (mammary carcinoma); Table 1, read-out: MCF7 (breast) IC50): 1.7 nM
IC50 (MCF7 (mammary carcinoma); Table 3, read-out: MCF7 IC50): 1.7 nM
IC50 (HT-29 (colon carcinoma)): 3.2 nM
IC50 [3]: 300 nM
IC50 (A121 (ovarian carcinoma)): 6.1 nM
IC50 [4]: 346 nM
